Test results: patent US20100197605A1, “THERAPEUTIC USE OF PEPTIDE YGLF AND COMBINATION WITH KVLPVPQ” (priority 2007, published 2010)
Where no end group is shown, it is not given here.

Columns and labels:
HIV-1IIIB = assay: HIV-1 antiviral assay in CEM-SS cells (MTS readout)
HCMV strain AD169 = assay: HCMV plaque formation assay in MRC-5 cells; assay type: cell-based
Experimental: Ganciclovir was used as positive control. […] The following day, peptides were added and tested in duplicates.

[1] = system: cyclic AMP generation in human peripheral blood mononuclear cells (PBMC); assay: cAMP induction assay (ELISA); assay type: cell-based; conditions: single peptide, 10 min at 37° C.
Experimental: The cAMP kit was used as an immunoassay for the quantitative determination of cyclic AMP generation in human peripheral blood mononuclear cells (PBMC). PBMC were placed in 96-well microtitier plates (50 microliters of cells at 4×10^6/ml) and 50 microliters of medium alone (background control), forskolin (cAMP positive control; 50 micrograms per ml), or test peptides were added. Plates were mixed and incubated for 10 min at 37° C. and the cells were lysed by the addition of 50 microliters of 3% perchloric acid. NaOH was added to neutralize the samples. Plates were centrifuged for 15 min at 2500 rpm and the supernatants removed. The supernatants (diluted 2-fold in assay buffer) were then assayed for the levels of cAMP by ELISA.

IL-2, spleen cells = assay: Th1/Th2 cytokine profiling assay, IL-2; assay type: cell-based, Balb/c mice; conditions: 10 micrograms per ml; Ovalbumin restimulation; 72 hours
From the text: (§1) The Balb/c mice (originated in 1923, it is a popular strain and is used in many different research disciplines. Also classified as an inbred from the production of 20 or more successive brother-sister matings, the Balb/c mouse is albino and small in size) were immunized on Days 1, 15, and 29 with Ovalbumin (Ovalbumin is the main protein found in egg white, commonly used to stimulate an immunological reaction in test animals) in PBS (5 micrograms/injection). On day 50, spleens of the mice were harvested (3 weeks after last boost with Ovalbumin). […] Thereafter, additional Ovalbumin was added to the cells at 10 micrograms/ml for in vitro restimulation of the cells. 72 hours later, cell supernatants were harvested and assayed using the Becton Dickinson Mouse Th1/Th2 Cytokine CBA Kit. This kit can be used to measure Interleukin-2 (IL-2), Interleukin-4 (IL-4), Interleukin-5 (IL-5), Interferon-γ (IFN-γ), and Tumor Necrosis Factor-α (TNF-α) protein levels in a single sample.

HUVEC = assay: Endothelial tube formation assay; assay type: cell-based, human; conditions: 10 micrograms per ml, single peptide, 20 hours
From the text: Positive control was vehicle only.

[2] = system: hepatitis B virus (HBV) ayw strain; assay: HBV experimental assay system, HepG2-2.2.15, secreted HBV DNA by TaqMan PCR; assay type: cell-based; conditions: 10 micrograms per ml, six days, HBV DNA in supernatant
[3] = system: Human Peripheral Blood Mononuclear Cells (PBMC), B cell proliferation; assay: B cell proliferation assay (SAC plus Interleukin-2 stimulated PBMC, 3H-thymidine); assay type: cell-based; conditions: 10 micrograms per ml; single peptide; SAC plus IL-2
Experimental: Human Peripheral Blood Mononuclear Cells (PBMC) were obtained from normal human donors. The B cell proliferation was induced by stimulation of the cells with the B cell mitogen Staphylococcus aureus Cowans I (SAC) plus Interleukin-2, either in the absence (positive proliferation control), or in the presence of test peptides—10 micrograms per ml—to examine their effects on the B cell response. 10^5/well PBMC were plated in 96-well microtiter plates and assayed in duplicate with the peptides. […] At the end of incubation time, the plates were harvested and the cells counted by liquid scintillation for the incorporation of ^3H-thymidine as a measure of B cell proliferation.

TNF-a, spleen cells = assay: Th1/Th2 cytokine profiling assay, TNF-a; assay type: cell-based, Balb/c mice; conditions: 10 micrograms per ml; Ovalbumin restimulation; 72 hours
From the text: as §1

IFNγ, spleen cells = assay: Th1/Th2 cytokine profiling assay, IFNγ; assay type: cell-based, Balb/c mice; conditions: 10 micrograms per ml; Ovalbumin restimulation; 72 hours
From the text: as §1

IL-4, spleen cells = assay: Th1/Th2 cytokine profiling assay, IL-4; assay type: cell-based, Balb/c mice; conditions: 10 micrograms per ml; Ovalbumin restimulation; 72 hours
From the text: as §1

RAW 264.7 cells = assay: Phagocytosis assay (Fluorescein-labeled Escherichia coli, flow cytometry); conditions: 10 micrograms per ml, single peptide, 30 min preincubation, 60 min ingestion
Experimental: RAW 264.7 (Mouse leukaemic monocyte macrophage cell line) cells were obtained from ATCC and grown in RPMI 1640 medium containing 10% FBS. Cells were incubated in 12×75 mm tubes at 37° C. with test peptides—10 micrograms per ml—for 30 min prior to adding Fluorescein-labeled Escherichia coli bacteria as the agent to be ingested. After the cells were incubated for additional 60 min at 37° C. and allowed to ingest the Fluorescein-labeled Escherichia coli bacteria, cells were fixed with 1% paraformaldehyde. The samples were then analyzed by flow cytometry to determine the amount of phagocytosis as a function of brightness (the greater the phagocytic activity, the more fluorescence in the macrophage population). Data are reported as % positive and the mean fluorescence intensity (MFI) of positively stained cells.

IL-5, spleen cells = assay: Th1/Th2 cytokine profiling assay, IL-5; assay type: cell-based, Balb/c mice; conditions: 10 micrograms per ml; Ovalbumin restimulation; 72 hours
From the text: as §1

Row | Molecule | antiviral activity of positive control compounds (HIV-1IIIB) | antiviral activity of positive control compound (HCMV strain AD169) | induction of cAMP formation in human peripheral blood cells [1] | IL-2 spleen cells (% of control) (IL-2, spleen cells) | inhibition of the tube formation of endothelial cells (HUVEC) | inhibition of HBV replication as compared to the virus control infection [2] | inhibition of the proliferation of specifically stimulated human B-cells [3] | TNF-a spleen cells; TH1 response (% of control) (TNF-a, spleen cells) | IFNγ spleen cells; TH1 response (% of control) (IFNγ, spleen cells) | IL-4 spleen cells; TH2 response (% of control) (IL-4, spleen cells) | increase of the phagocytic activity of murine macrophages (RAW 264.7 cells) | IL-5 spleen cells; TH2 response (% of control) (IL-5, spleen cells)
1 | Cc1cn([C@H]2C[C@H](N=[N+]=[N-])[C@@H](CO)O2)c(=O)[nH]c1=O [AZT] | expected levels of antiviral activity | – | – | – | – | – | – | – | – | – | – | –
2 | CC(C)(C)NC(=O)[C@@H]1CN(Cc2cccnc2)CCN1C[C@@H](O)C[C@@H](Cc1ccccc1)C(=O)N[C@H]1c2ccccc2C[C@H]1O [indinavir] | expected levels of antiviral activity | – | – | – | – | – | – | – | – | – | – | –
3 | Nc1nc(O)c2ncn(COC(CO)CO)c2n1 [Ganciclovir] | – | expected levels of antiviral activity | – | – | – | – | – | – | – | – | – | –
4 | Tyr-Gly-Leu-Phe-OH (YGLF-OH) [peptide 1] | – | – | 5.1% | 0.0 % of control | 24% | no effect | 18% | 78.9 % of control | 58.6 % of control | 0.0 % of control | no inhibitory or activating effects | 51.1 % of control
5 | Lys-Val-Leu-Pro-Val-Pro-Gln-OH (KVLPVPQ-OH) [peptide 2] | – | – | 4.1% | 67.3 % of control | 15% | – | – | 90.3 % of control | 41.5 % of control | 94.9 % of control | 20.0% | 61.6 % of control
